In patent US20250179059A1 (The Regents of the University of California, priority 2021, published 2025) one finds IC50 and GI50 data, which are given here for 24 molecules.

The IC50 is the midpoint of a concentration-inhibition curve. One may read the GI50 as the concentration that inhibits growth by half. Higher therefore signals less potent growth inhibition.

Like-named read-outs stand apart in the source and are kept apart here.

Assay [1] deals with T1, human BRD4 bromodomain II (Homo sapiens, UniProt O60885).
T1 construct: human BRD4 bromodomain II [based on Genbank NM_058243, residues 349-460]; host or cells: E. coli
Nature of the assay: Bromodomain binding assay (AlphaScreen), BRD4 BDII. The gist of the method: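 Read-out is AlphaScreen signal (ex 680 nm, em 520-620 nm) from streptavidin donor beads on a biotinylated acetylated histone H4 (aa 1-21) peptide and nickel acceptor beads on the His6-tagged bromodomain. IC50 values come from curve fits of percentage peptide binding against compound concentration.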
(In general: Alpha assays give light when donor and acceptor beads are brought close together.)

Assay [2] has as its system human SKM-1 acute myeloid leukemia cells. Put plainly: SKM-1 antiproliferation cell-based assay (ATPlite). The following applies: Homo sapiens. A digest of the protocol:
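Log-phase cells in RPMI 1640/15% FBS were seeded at 34722 cells/mL and exposed for 4 days to nine-concentration DMSO serial dilutions in triplicate. Viability was read as ATP luminescence (ATPlite 1step), and IC50 values came from variable-slope non-linear regression.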

Where [3] appears, read: BRD4 BDII AlphaScreen assay, read-out: BRD4 BD2 IC50.
The mark [4] stands for this setting: SKM-1, SKM-1 antiproliferation assay.
[5] abbreviates: AlphaScreen assay, Table C2, read-out: BRD4 BDII IC50.
[6] abbreviates: SKM-1, 96 h, SKM-1 antiproliferation assay, 4 days, Table C2.

Regarding `Cc1ncc(-c2cc(F)cc(-c3ccc(-n4ccn(C)c4=O)c(Cl)c3)c2O)cc1N1CC(F)(F)[C@@](C)(O)C1` [Example 897], the IC50 in assay [1] (setting [3]) fell in the range of 1 to 10 nM. For the same molecule, in assay [2] (setting [4]), the concentration for 50% growth inhibition (GI50) lay in the range of 30 to 300 nM.
Consider `[2H]C([2H])([2H])n1ccn(-c2ccc(-c3cc(F)cc(-c4ccnc(N5CCNC[C@@H]5C)c4)c3O)cc2Cl)c1=O` [Example 482, (S)-1-(3-chloro-5′-fluoro-2′-hydroxy-3′-(2-(2-methylpiperazin-1-yl)pyridin-4-yl)-[1,1′-biphenyl]-4-yl)-3-deuteromethyl-1H-imidazol-2(3H)-one], for which the half-inhibitory concentration (IC50) in assay [1] (setting [5]) is 0.01 to 1 nM. For the same molecule, the GI50 in assay [2] (setting [6]) was in the range of 0.3 to 30 nM.
For the molecule `O=C1CCCN1c1ccc(-c2cc(F)cc(-c3ccnc(N4CCNCC4)c3)c2O)cc1Cl` [Example 217, 1-(3-chloro-5′-fluoro-2′-hydroxy-3′-(2-(piperazin-1-yl)pyridin-4-yl)-[1,1′-biphenyl]-4-yl)pyrrolidin-2-one], the IC50 in assay [1] (setting [5]) is 1 to 10 nM. Also, in assay [2] (setting [6]), the 50% growth inhibitory concentration (GI50) was 300 to 3000 nM.
For the molecule `COCC(C)(C)N1CCN(c2cc(-c3cc(F)cc(-c4ccc(-n5ccn(C)c5=O)c(Cl)c4)c3O)cnc2OC)CC1` [Example 850, 1-(3-Chloro-5′-fluoro-2′-hydroxy-3′-(6-methoxy-5-(4-(1-methoxy-2-methylpropan-2-yl)piperazin-1-yl)pyridin-3-yl)-[1,1′-biphenyl]-4-yl)-3-methyl-1H-imidazol-2(3H)-one], in assay [1] (setting [3]), the IC50 is 1 to 10 nM. Besides, the 50% growth inhibitory concentration (GI50) in assay [2] (setting [4]) is 0.3 to 30 nM.
Take `Cn1ccn(-c2ccc(-c3cc(F)cc(-c4ccnc(N5CC6CCC(C5)N6)c4)c3O)cc2Cl)c1=O` [Example 511, 1-(3′-(2-(3,8-diazabicyclo[3.2.1]octan-3-yl)pyridin-4-yl)-3-chloro-5′-fluoro-2′-hydroxy-[1,1′-biphenyl]-4-yl)-3-methyl-1H-imidazol-2(3H)-one]: the IC50 in assay [1] (setting [5]) is 1 to 10 nM. Besides, the GI50 in assay [2] (setting [6]) lay in the range of 0.3 to 30 nM.
On to `Cn1ccn(-c2ccc(-c3cc(F)cc(-c4cc(N5CCN(C(C)(C)C)CC5)ncn4)c3O)cc2Cl)c1=O` [Example 942, 1-(3′-(6-(4-(tert-butyl)piperazin-1-yl)pyrimidin-4-yl)-3-chloro-5′-fluoro-2′-hydroxy-[1,1′-biphenyl]-4-yl)-3-methyl-1H-imidazol-2(3H)-one], for which, in assay [1] (setting [3]), the IC50 was greater than 100 nM. For the same molecule, in assay [2] (setting [4]), the GI50 was in the range of 300 to 3000 nM.
With `CN1CCCC12CCN(c1cncc(-c3cc(F)cc(-c4ccc(-n5ccn(C)c5=O)c(Cl)c4)c3O)c1)C2` (stereo not drawn) [Example 700, 1-(3-chloro-5′-fluoro-2′-hydroxy-3′-(5-(1-methyl-1,7-diazaspiro[4.4]nonan-7-yl)pyridin-3-yl)-[1,1′-biphenyl]-4-yl)-3-methyl-1H-imidazol-2(3H)-one], the IC50 in assay [1] (setting [5]) lay within 0.01 to 1 nM. In assay [2] (setting [6]), this molecule displayed a concentration for 50% growth inhibition (GI50) of 0.3 to 30 nM.
Consider `C[C@H]1CCCN(c2cc(-c3cc(F)cc(-c4ccc(-n5ccn(C)c5=O)c(Cl)c4)c3O)ccn2)C1` [Example 632, (S)-1-(3-chloro-5′-fluoro-2′-hydroxy-3′-(2-(3-methylpiperidin-1-yl)pyridin-4-yl)-[1,1′-biphenyl]-4-yl)-3-methyl-1H-imidazol-2(3H)-one], for which, in assay [1] (setting [5]), the half-maximal inhibitory concentration (IC50) was 10 to 100 nM. Besides, the GI50 in assay [2] (setting [6]) lay in the range of 300 to 3000 nM.
For `CC(=O)NC1(C)CCN(c2cc(-c3cc(F)cc(-c4ccc(-n5ccn(C)c5=O)c(Cl)c4)c3O)ccn2)CC1` [Example 790, N-(1-(4-(3′-chloro-5-fluoro-2-hydroxy-4′-(3-methyl-2-oxo-2,3-dihydro-1H-imidazol-1-yl)-[1,1′-biphenyl]-3-yl)pyridin-2-yl)-4-methylpiperidin-4-yl)acetamide], in that order: 0.01 to 1 nM and 0.3 to 30 nM.
With `CN1CCN(c2ccc(-c3cc(F)cc(-c4cnc(N5CCCC5)c(N5CCNCC5)c4)c3O)cc2Cl)C1=O` [Example 397, 1-(3-chloro-5′-fluoro-2′-hydroxy-3′-(5-(piperazin-1-yl)-6-(pyrrolidin-1-yl)pyridin-3-yl)-[1,1′-biphenyl]-4-yl)-3-methylimidazolidin-2-one], the concentration for half-maximal inhibition (IC50) in assay [1] (setting [5]) lay within 1 to 10 nM. In assay [2] (setting [6]), this molecule registered a concentration for 50% growth inhibition (GI50) of 30 to 300 nM.
With `Cn1cc(-c2cc(F)cc(-c3ccc(-n4ccn(C)c4=O)c(Cl)c3)c2O)cc(N2CCC(C)(N)C2)c1=O` (stereo not drawn) [Example 723, 3-(3-amino-3-methylpyrrolidin-1-yl)-5-(3′-chloro-5-fluoro-2-hydroxy-4′-(3-methyl-2-oxo-2,3-dihydro-1H-imidazol-1-yl)-[1,1′-biphenyl]-3-yl)-1-methylpyridin-2(1H)-one], in assay [1] (setting [5]), the IC50 was 1 to 10 nM. This molecule yielded a concentration for 50% growth inhibition (GI50) in assay [2] (setting [6]) of 0.3 to 30 nM.
As for `Cc1ncc(-c2cc(F)cc(-c3ccc(-n4ccn(C)c4=O)c(Cl)c3)c2O)cc1N1CCN(C2CCOC2)CC1` (stereo not drawn) [Example 890], the half-inhibitory concentration (IC50) in assay [1] (setting [3]) fell in the range of 1 to 10 nM. For the same molecule, the GI50 in assay [2] (setting [4]) is 0.3 to 30 nM.
For `Cn1ccn(-c2ccc(-c3cc(F)cc(-c4cccc(N5CCCN(C(C)(C)C)CC5)c4)c3O)cc2Cl)c1=O` [Example 851, 1-(3″-(4-(tert-Butyl)-1,4-diazepan-1-yl)-3-chloro-5′-fluoro-2′-hydroxy-[1,1′:3′,1″-terphenyl]-4-yl)-3-methyl-1H-imidazol-2(3H)-one], the half-maximal inhibitory concentration (IC50) in assay [1] (setting [3]) lay in the range of 1 to 10 nM. The same molecule registered a GI50 in assay [2] (setting [4]) of 30 to 300 nM.
In the case of `COc1cc(-c2ccnc(N3CCNCC3)c2)c(O)c(-c2ccc(N3CCN(C)C3=O)c(Cl)c2)c1` [Example 312, l-(3-chloro-2′-hydroxy-5′-methoxy-3′-(2-(piperazin-1-yl)pyridin-4-yl)-[1,1′-biphenyl]-4-yl)-3-methylimidazolidin-2-one], in assay [1] (setting [5]), the IC50 lay in the range of 1 to 10 nM. Further, the GI50 in assay [2] (setting [6]) was 30 to 300 nM.
`Cn1ccn(-c2ccc(-c3cc(F)cc(-c4ccnc(N5CCC(N)(CO)C5)c4)c3O)cc2Cl)c1=O` (stereo not drawn) [Example 750, 1-(3′-(2-(3-amino-3-(hydroxymethyl)pyrrolidin-1-yl)pyridin-4-yl)-3-chloro-5′-fluoro-2′-hydroxy-[1,1′-biphenyl]-4-yl)-3-methyl-1H-imidazol-2(3H)-one]: in assay [1] (setting [5]), the half-maximal inhibitory concentration (IC50) lay within 0.01 to 1 nM. In addition, the concentration for 50% growth inhibition (GI50) in assay [2] (setting [6]) lay in the range of 0.3 to 30 nM.
With `Cn1ccn(-c2ccc(-c3cc(F)cc(-c4ccnc(N5CCN[C@H](CC(=O)O)C5)c4)c3O)cc2Cl)c1=O` [Example 653], the IC50 in assay [1] (setting [5]) was in the range of 0.01 to 1 nM. The molecule further yielded a GI50 in assay [2] (setting [6]) of 300 to 3000 nM.
The like results for `CO[C@H]1CCN(c2cc(-c3cc(F)cc(-c4ccc(-n5ccn(C)c5=O)c(Cl)c4)c3O)ccn2)C1` [Example 691, (S)-1-(3-chloro-5′-fluoro-2′-hydroxy-3′-(2-(3-methoxypyrrolidin-1-yl)pyridin-4-yl)-[1,1′-biphenyl]-4-yl)-3-methyl-1H-imidazol-2(3H)-one] were, in that order, 0.01 to 1 nM and 30 to 300 nM.
For `CC(C)Oc1cc(-c2cc(F)cc(-c3ccnc(N4CCNCC4)c3)c2O)cc(Cl)c1-n1ccn(C)c1=O` [Example 434, 1-(3-chloro-5′-fluoro-2′-hydroxy-5-isopropoxy-3′-(2-(piperazin-1-yl)pyridin-4-yl)-[1,1′-biphenyl]-4-yl)-3-methyl-1H-imidazol-2(3H)-one], in assay [1] (setting [5]), the half-maximal inhibitory concentration (IC50) lay within 10 to 100 nM. The molecule also came in with a GI50 in assay [2] (setting [6]) of 300 to 3000 nM.
As for `CN1CCN(c2ccc(-c3cc(F)cc(-c4cccc(N5CCN(C(C)(C)C)CC5)c4)c3O)cc2Cl)C1=O` [Example 918, 1-(3″-(4-(tert-butyl)piperazin-1-yl)-3-chloro-5′-fluoro-2′-hydroxy-[1,1′:3′,1″-terphenyl]-4-yl)-3-methylimidazolidin-2-one], the concentration for half-maximal inhibition (IC50) in assay [1] (setting [3]) was 1 to 10 nM. The molecule also yielded a GI50 in assay [2] (setting [4]) of 0.3 to 30 nM.
Consider `CN1CCN(c2ccc(-c3cccc(-c4ccc(C#N)c(N5CCNCC5)c4)c3O)cc2Cl)C1=O` [Example 308, 3″-chloro-2′-hydroxy-4″-(3-methyl-2-oxoimidazolidin-1-y1)-3-(piperazin-1-yl)-[1,1′:3′,1″-terphenyl]-4-carbonitrile], for which the 50% inhibitory concentration (IC50) in assay [1] (setting [5]) was 1 to 10 nM. This molecule displayed a GI50 in assay [2] (setting [6]) of 30 to 300 nM.
On to `COc1ncc(-c2nc(C)cc(-c3ccc(-n4ccn(C)c4=O)c(Cl)c3)c2O)cc1N1CC2CCC(C1)N2C(C)C` [Example 1039, 1-(2-chloro-4-(3-hydroxy-5′-(8-isopropyl-3,8-diazabicyclo[3.2.1]octan-3-yl)-6′-methoxy-6-methyl-[2,3′-bipyridin]-4-yl)phenyl)-3-methyl-1H-imidazol-2(3H)-one], for which, in assay [1] (setting [3]), the concentration for half-maximal inhibition (IC50) lay within 1 to 10 nM. The molecule also gave a 50% growth inhibitory concentration (GI50) in assay [2] (setting [4]) of 0.3 to 30 nM.
On to `Cn1ccn(-c2ccc(-c3cc(F)cc(-c4cncc(N5CC[C@@H](O)[C@H](N)C5)c4)c3O)cc2Cl)c1=O` [Example 495, 1-(3′-(5-((3R,4R)-3-amino-4-hydroxypiperidin-1-yl)pyridin-3-yl)-3-chloro-5′-fluoro-2′-hydroxy-[1,1′-biphenyl]-4-yl)-3-methyl-1H-imidazol-2(3H)-one], for which, in assay [1] (setting [5]), the concentration for half-maximal inhibition (IC50) lay in the range of 1 to 10 nM. In assay [2] (setting [6]), this molecule had a 50% growth inhibitory concentration (GI50) of 30 to 300 nM.
For the molecule `Cc1cc(-c2ccc(-n3ccn(C)c3=O)c(Cl)c2)c(O)c(-c2ccnc(N3CC[C@](C)(O)C3)c2)n1` [Example 995, (S)-1-(2-chloro-4-(3-hydroxy-2′-(3-hydroxy-3-methylpyrrolidin-1-yl)-6-methyl-[2,4′-bipyridin]-4-yl)phenyl)-3-methyl-1H-imidazol-2(3H)-one], in assay [1] (setting [3]), the IC50 is 1 to 10 nM. For the same molecule, in assay [2] (setting [4]), the GI50 lay within 0.3 to 30 nM.
Regarding `CC(=O)Nc1ccc(-c2cc(F)cc(-c3cccc(N4CCNCC4)c3)c2O)cc1F` [Example 180, N-(3,5′-difluoro-2′-hydroxy-3″-(piperazin-1-yl)-[1,1′:3′,1″-terphenyl]-4-yl)acetamide], in assay [1] (setting [5]), the IC50 was 1 to 10 nM. Besides, in assay [2] (setting [6]), the concentration for 50% growth inhibition (GI50) was in the range of 300 to 3000 nM.
